Drawing on article PMC6812009, “Covalent Aurora A regulation by the metabolic integrator coenzyme A” (Redox Biology, 2019), this text covers activity for three compounds.

Common to all, as to test: Kinase profiling screen (radioactive filter-binding assay)
Format in all cases: biochemical

For one assay, the target named is PLK1 (Homo sapiens, UniProt P53350). To be noted: 100 μM compound, 5 μM ATP; read-out: Kinase activity, % of activity in the absence of inhibitor. The method in brief: (§1)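 Panel of 117 recombinant kinases; CoA, dpCoA, ADP each at 100 μM final, duplicates; model substrates, ATP at optimal level.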
In the next assay the target is MNK2 (Homo sapiens, UniProt Q9HBH9). The conditions noted are these: 100 μM compound, 50 μM ATP; read-out: Kinase activity, % of activity in the absence of inhibitor. The method in brief:
as §1

The target of the next assay is T1, MST2 (Homo sapiens, UniProt Q13188).
T1 sequence (Q13188 1-491): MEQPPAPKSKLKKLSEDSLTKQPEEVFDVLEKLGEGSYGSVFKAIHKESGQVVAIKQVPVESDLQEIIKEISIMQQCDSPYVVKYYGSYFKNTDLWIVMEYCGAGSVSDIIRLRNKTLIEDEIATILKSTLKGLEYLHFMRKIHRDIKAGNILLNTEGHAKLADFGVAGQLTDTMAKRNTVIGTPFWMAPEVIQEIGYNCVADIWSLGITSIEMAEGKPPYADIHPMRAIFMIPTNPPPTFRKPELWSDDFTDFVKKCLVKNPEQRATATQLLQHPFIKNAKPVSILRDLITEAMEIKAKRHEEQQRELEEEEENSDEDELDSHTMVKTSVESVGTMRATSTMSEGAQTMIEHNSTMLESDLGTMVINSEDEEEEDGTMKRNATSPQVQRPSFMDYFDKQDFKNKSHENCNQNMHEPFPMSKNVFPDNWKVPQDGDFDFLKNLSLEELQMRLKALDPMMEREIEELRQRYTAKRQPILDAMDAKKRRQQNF
To be noted: 100 μM compound, 20 μM ATP; read-out: Kinase activity, % of activity in the absence of inhibitor. The procedure, abridged:
as §1

In a further assay the target is SRPK1 (Homo sapiens, UniProt Q96SB4). The conditions noted are these: 100 μM compound, 50 μM ATP; read-out: Kinase activity, % of activity in the absence of inhibitor. The method in brief: as §1
The target in a further assay is MARK3 (Homo sapiens, UniProt P27448). The conditions noted are these: 100 μM compound, 5 μM ATP; read-out: Kinase activity, % of activity in the absence of inhibitor. The method in brief:
as §1

For a further assay, the target named is MNK1 (Homo sapiens, UniProt Q9BUB5). The conditions noted are these: 100 μM compound, 50 μM ATP; read-out: Kinase activity, % of activity in the absence of inhibitor. The method in brief: as §1
The target in a further assay is ABL (Homo sapiens, UniProt P00519). The conditions noted are these: 100 μM compound, 5 μM ATP; read-out: Kinase activity, % of activity in the absence of inhibitor. The procedure, abridged:
as §1

A further assay addresses PIM3 (Homo sapiens, UniProt Q86V86). To be noted: 100 μM compound, 20 μM ATP; read-out: Kinase activity, % of activity in the absence of inhibitor. The procedure, abridged: as §1
The target in another assay is NEK6 (Homo sapiens, UniProt Q9HC98). The conditions noted are these: 100 μM compound, 50 μM ATP; read-out: Kinase activity, % of activity in the absence of inhibitor. The method in brief: as §1
The target of a further assay is PRK2 (Homo sapiens, UniProt Q16513). The conditions noted are these: 100 μM compound, 5 μM ATP; read-out: Kinase activity, % of activity in the absence of inhibitor. The procedure, abridged:
as §1

A further assay addresses JAK2 (Homo sapiens, UniProt O60674). The conditions noted are these: 100 μM compound, 5 μM ATP; read-out: Kinase activity, % of activity in the absence of inhibitor. The method in brief: as §1
The target of a further assay is CHK2 (Homo sapiens, UniProt O96017). The conditions noted are these: 100 μM compound, 20 μM ATP; read-out: Kinase activity, % of activity in the absence of inhibitor. The procedure, abridged:
as §1

In the next assay the target is MARK2 (Homo sapiens, UniProt Q7KZI7). The conditions noted are these: 100 μM compound, 20 μM ATP; read-out: Kinase activity, % of activity in the absence of inhibitor. The procedure, abridged: as §1
Another assay concerns the target EPH-A4 (Homo sapiens, UniProt P54764). The conditions noted are these: 100 μM compound, 50 μM ATP; read-out: Kinase activity, % of activity in the absence of inhibitor. The method in brief: as §1
The target of a further assay is PKCα (Homo sapiens, UniProt P17252). To be noted: 100 μM compound, read-out: Kinase activity, % of activity in the absence of inhibitor. The procedure, abridged: as §1
The target of another assay is p38β MAPK (Homo sapiens, UniProt Q15759). To be noted: 100 μM compound, 20 μM ATP; read-out: Kinase activity, % of activity in the absence of inhibitor. The procedure, abridged:
as §1

In another assay the target is T2, BRSK1 (Homo sapiens, UniProt Q8TDC3).
T2 sequence (Q8TDC3 1-778): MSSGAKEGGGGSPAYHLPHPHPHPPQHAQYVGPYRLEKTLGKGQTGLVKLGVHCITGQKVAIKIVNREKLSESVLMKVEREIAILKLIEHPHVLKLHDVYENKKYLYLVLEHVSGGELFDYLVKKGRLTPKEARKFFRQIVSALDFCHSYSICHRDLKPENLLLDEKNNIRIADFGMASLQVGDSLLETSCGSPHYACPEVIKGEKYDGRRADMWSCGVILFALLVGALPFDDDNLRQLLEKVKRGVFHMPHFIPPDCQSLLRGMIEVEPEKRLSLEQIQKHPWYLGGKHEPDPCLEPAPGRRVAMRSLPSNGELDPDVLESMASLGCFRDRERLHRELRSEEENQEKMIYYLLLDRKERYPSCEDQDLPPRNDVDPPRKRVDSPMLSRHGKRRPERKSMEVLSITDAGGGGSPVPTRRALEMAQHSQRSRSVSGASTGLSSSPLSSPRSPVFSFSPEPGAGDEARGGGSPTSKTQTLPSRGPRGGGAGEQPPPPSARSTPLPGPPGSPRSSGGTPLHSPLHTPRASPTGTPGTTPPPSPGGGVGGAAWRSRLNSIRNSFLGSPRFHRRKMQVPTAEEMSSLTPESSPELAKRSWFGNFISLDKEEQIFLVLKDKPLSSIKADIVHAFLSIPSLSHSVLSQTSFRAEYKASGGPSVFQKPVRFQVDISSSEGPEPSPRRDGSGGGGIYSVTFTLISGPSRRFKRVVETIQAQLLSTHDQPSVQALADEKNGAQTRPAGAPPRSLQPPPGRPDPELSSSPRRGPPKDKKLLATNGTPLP
To be noted: 100 μM compound, 20 μM ATP; read-out: Kinase activity, % of activity in the absence of inhibitor. The method in brief: as §1

The target of a further assay is MARK1 (Homo sapiens, UniProt Q9P0L2). To be noted: 100 μM compound, 20 μM ATP; read-out: Kinase activity, % of activity in the absence of inhibitor. The procedure, abridged:
as §1

The target of a further assay is GSK3β (Homo sapiens, UniProt P49841). To be noted: 100 μM compound, 5 μM ATP; read-out: Kinase activity, % of activity in the absence of inhibitor. The method in brief:
as §1

Where two headings read alike, the source gives them in different places.

Chain of MARK2 (Q7KZI7 whole entry): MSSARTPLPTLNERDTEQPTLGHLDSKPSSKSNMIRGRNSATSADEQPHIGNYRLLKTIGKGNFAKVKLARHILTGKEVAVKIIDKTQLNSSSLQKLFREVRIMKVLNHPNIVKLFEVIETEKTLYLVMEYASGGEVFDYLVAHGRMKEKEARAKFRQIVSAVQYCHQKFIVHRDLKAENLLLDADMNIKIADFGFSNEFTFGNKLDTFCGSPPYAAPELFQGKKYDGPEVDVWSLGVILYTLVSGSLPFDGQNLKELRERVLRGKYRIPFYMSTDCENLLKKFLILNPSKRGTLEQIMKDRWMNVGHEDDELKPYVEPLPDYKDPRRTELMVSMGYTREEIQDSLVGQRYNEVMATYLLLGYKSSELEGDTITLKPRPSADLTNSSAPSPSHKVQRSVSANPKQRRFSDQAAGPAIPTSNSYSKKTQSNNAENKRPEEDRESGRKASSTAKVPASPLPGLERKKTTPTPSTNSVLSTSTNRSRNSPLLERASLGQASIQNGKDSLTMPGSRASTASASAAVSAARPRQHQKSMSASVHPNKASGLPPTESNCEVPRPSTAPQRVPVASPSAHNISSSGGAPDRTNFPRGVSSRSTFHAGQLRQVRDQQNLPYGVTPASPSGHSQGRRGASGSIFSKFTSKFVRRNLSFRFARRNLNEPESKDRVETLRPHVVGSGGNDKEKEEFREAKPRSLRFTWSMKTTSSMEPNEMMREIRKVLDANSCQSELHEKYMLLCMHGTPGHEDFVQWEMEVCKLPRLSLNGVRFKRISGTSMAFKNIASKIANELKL
Chain of SRPK1 (Q96SB4 whole entry): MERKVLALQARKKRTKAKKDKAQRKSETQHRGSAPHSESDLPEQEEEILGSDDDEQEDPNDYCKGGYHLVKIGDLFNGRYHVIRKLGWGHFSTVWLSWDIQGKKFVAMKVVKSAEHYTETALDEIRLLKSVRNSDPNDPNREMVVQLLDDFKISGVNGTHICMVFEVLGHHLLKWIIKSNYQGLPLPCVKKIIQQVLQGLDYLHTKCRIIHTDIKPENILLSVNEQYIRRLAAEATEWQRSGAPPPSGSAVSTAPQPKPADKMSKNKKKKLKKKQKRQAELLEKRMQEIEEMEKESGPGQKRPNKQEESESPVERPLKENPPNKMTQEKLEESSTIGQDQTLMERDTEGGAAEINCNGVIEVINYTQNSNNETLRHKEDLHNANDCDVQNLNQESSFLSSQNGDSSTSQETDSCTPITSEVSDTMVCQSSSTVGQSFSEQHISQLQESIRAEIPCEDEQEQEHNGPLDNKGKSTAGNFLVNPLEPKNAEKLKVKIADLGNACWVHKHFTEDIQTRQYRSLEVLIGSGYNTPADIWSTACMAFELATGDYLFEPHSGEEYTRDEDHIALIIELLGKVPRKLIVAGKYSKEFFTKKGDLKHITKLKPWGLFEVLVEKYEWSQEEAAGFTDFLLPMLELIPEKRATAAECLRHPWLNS
Chain of CHK2 (O96017 whole entry): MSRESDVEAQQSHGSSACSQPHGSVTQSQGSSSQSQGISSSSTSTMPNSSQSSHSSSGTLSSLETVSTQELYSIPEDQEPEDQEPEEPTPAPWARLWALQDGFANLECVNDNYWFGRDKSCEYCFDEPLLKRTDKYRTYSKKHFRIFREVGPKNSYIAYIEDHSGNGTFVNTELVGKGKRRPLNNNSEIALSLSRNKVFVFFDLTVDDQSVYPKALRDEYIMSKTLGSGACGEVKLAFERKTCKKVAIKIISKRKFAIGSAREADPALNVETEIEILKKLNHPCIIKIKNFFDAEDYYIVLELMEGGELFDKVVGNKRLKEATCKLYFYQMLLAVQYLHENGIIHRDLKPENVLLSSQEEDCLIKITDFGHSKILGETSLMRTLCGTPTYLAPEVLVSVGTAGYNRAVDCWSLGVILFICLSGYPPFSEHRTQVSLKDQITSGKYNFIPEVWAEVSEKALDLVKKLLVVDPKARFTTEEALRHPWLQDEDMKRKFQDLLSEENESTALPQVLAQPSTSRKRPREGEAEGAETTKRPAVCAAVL
Chain of NEK6 (Q9HC98 whole entry): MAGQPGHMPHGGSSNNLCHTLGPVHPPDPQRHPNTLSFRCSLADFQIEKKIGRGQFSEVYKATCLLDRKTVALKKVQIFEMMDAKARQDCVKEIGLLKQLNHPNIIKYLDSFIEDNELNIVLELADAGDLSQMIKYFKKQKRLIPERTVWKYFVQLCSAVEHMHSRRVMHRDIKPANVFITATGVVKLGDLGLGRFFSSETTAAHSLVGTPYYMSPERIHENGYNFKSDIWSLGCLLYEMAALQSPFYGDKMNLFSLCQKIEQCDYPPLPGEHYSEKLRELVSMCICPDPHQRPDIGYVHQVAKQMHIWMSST
Chain of ABL (P00519 whole entry): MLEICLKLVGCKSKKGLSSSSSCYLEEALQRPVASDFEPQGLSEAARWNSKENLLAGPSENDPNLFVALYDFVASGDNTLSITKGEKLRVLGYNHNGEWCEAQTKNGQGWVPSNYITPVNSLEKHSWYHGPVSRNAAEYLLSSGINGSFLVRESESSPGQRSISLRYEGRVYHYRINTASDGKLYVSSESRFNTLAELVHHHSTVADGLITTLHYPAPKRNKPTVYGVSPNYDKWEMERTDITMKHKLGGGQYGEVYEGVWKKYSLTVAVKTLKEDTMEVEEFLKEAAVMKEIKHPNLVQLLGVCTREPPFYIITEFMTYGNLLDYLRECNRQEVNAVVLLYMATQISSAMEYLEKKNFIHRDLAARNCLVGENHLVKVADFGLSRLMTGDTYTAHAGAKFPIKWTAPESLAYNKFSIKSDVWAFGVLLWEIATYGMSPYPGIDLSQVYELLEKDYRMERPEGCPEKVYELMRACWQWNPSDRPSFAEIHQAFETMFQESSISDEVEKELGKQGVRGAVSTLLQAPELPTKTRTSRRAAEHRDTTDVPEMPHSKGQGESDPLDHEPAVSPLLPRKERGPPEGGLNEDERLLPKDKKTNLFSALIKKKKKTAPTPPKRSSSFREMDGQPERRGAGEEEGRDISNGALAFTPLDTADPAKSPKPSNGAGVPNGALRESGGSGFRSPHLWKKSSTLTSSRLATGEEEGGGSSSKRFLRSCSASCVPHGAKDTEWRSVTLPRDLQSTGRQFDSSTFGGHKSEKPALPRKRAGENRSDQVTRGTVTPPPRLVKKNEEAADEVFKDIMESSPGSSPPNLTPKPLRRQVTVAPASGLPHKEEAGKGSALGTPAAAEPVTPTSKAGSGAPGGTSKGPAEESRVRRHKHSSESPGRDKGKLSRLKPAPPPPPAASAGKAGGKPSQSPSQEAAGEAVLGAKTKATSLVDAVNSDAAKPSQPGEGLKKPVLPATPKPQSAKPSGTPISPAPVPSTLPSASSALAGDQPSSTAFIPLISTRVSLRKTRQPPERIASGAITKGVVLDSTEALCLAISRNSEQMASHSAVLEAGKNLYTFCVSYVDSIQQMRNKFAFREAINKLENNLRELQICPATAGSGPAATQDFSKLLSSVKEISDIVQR
Chain of MNK1 (Q9BUB5 whole entry): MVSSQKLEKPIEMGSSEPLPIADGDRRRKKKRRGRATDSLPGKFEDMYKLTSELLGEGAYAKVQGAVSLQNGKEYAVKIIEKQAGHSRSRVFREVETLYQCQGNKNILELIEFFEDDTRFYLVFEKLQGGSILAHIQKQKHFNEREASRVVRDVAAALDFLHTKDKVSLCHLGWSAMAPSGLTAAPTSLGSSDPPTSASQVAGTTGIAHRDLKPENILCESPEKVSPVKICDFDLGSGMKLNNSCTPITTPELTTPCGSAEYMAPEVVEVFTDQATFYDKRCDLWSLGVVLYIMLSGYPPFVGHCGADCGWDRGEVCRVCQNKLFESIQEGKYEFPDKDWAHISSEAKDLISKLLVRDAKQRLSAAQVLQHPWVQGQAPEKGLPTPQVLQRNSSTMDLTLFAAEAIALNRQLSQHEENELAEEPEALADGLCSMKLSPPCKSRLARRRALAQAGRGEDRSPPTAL
Chain of MNK2 (Q9HBH9 whole entry): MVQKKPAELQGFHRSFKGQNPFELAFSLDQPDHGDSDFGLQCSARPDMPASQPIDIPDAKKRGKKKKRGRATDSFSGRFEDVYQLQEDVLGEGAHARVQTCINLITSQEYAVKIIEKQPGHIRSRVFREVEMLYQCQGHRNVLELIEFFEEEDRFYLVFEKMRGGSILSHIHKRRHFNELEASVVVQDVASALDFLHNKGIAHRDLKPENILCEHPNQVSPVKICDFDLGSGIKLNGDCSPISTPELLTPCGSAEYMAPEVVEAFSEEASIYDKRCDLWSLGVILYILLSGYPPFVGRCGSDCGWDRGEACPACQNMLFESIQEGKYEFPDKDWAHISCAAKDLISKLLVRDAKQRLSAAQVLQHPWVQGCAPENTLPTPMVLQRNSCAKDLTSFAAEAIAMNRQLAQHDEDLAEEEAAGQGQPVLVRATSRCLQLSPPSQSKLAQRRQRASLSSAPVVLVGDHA

As for `Nc1ncnc2c1ncn2C1OC(COP(=O)(O)OP(=O)(O)O)C(O)C1O` (stereo not drawn) [ADP], the activity at 100 µM was 52.2% on PLK1; 41.2% at MNK2; 40.5% on MST2; 60.9% at SRPK1; 14.8% on MARK3; 60.7% at MNK1. Besides, the activity at 100 µM was 22.9% at ABL; 36.1% at PIM3; 26.6% at NEK6; 20.8% at PRK2; 7.1% at JAK2; 43.2% on CHK2. Also, the activity at 100 µM on MARK2 worked out at 25%; at EPH-A4 it was 32.5%; at PKCα (5 μM ATP), 38.6%; on PKCα (20 μM ATP) it was 76.5%; on p38β MAPK, 51.1%; on BRSK1, 42.8%. Also, the activity at 100 µM on MARK1 is 28.1%; at GSK3β, 18.2%.
For the compound `CC(C)(COP(=O)(O)OP(=O)(O)OC[C@H]1O[C@@H](n2cnc3c(N)ncnc32)[C@H](O)[C@@H]1OP(=O)(O)O)[C@@H](O)C(=O)NCCC(=O)NCCS` [CoA, Coenzyme A], the activity at 100 µM on PLK1 stood at 101%; on MNK2, 138%; at MST2, 119%; on SRPK1 it was 116%; at MARK3 it was 88.9%; on MNK1 it was 150%. Also, the activity at 100 µM on ABL was found to be 111%; on PIM3 it was 122%; at NEK6, 118%; at PRK2, 71.3%; on JAK2, 106%; on CHK2, 88.9%. Moreover, the activity at 100 µM at MARK2 worked out at 93.1%; at EPH-A4, 115%; at PKCα (5 μM ATP) it was 104%; at PKCα (20 μM ATP), 78.1%; on p38β MAPK, 160%; at BRSK1, 110%. The activity at 100 µM was 95.3% at MARK1 and 94.7% on GSK3β.
Consider `CC(C)(COP(=O)(O)OP(=O)(O)OCC1OC(n2cnc3c(N)ncnc32)C(O)C1O)C(O)C(=O)NCCC(=O)NCCS` (stereo not drawn) [dpCoA, dephospho-CoA], for which the activity at 100 µM at PLK1 is 100%; at MNK2, 87.1%; on MST2, 72.5%; on SRPK1 it was 89.1%; on MARK3, 46.2%; on MNK1, 84.2%. Also, the activity at 100 µM was 98% at ABL; 96.7% at PIM3; 69.6% on NEK6; 67.5% on PRK2; 62.5% at JAK2; 56% at CHK2. In addition, the activity at 100 µM on MARK2 was determined as 81.5%; at EPH-A4, 75.6%; at PKCα (5 μM ATP) it was 76.8%; at PKCα (20 μM ATP), 88.9%; on p38β MAPK, 94.5%; on BRSK1, 96.4%. For the same compound, the activity at 100 µM on MARK1 came out at 68%; at GSK3β it was 72.1%.
